Experiments:
[1] = R. Fujisawa et al. 1996, cited from earlier work
dihydrofolate reductase = conditions: 1 nmole peptide adsorbed on 1 mg hydroxyapatite; 0.52 nmole DHFR, pH 6.4, shaken 45 minutes; SDS gel, Coumassie Blue
Experimental: The supernatant was removed by centrifugation and the hydroxyapatite was washed with 100 μl of water. Dihydrofolate reductase (0.52 nmole) in 200 μl of buffer containing 0.1 M ammonium sulfate, 0.01 M potassium phosphate, at pH 6.4 and 5% glycerol was added to the hydroxyapatite and shaken for 45 minutes. The hydroxyapatite was separated from the supernatant, washed with 100 μl of water and then eluted twice with 20 μl of 0.02 M K4P2O7. […] The supernatant, the washes and the pyrophosphate eluate were analyzed on a 6% arylamide SDS gel using Coumassie Blue to visualize dihydrofolate reductase.

streptavidin = streptavidin (Streptomyces avidinii, UniProt P22629); test: Recruitment of 125I-labeled streptavidin to hydroxyapatite; type: binding; conditions: 1 nmole peptide on 1 mg hydroxyapatite; 0.1 nmole 125I-streptavidin, 1 M KCl, 0.01 M phosphate pH 6.5, 45 minutes
Sequence of streptavidin (P22629 25-183): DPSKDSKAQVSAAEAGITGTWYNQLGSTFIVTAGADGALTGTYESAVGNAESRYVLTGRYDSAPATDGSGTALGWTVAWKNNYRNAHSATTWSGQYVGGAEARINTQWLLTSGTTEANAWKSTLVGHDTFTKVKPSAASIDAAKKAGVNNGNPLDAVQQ
Experimental: The supernatant was removed by centrifugation, and the conjugate treated hydroxyapatite washed several times with 200 μl of H2O. The amounts of radioactivity found in the supernatant, wash and conjugate treated hydroxyapatite were then measured. In control experiments, biotin-glu10 was replaced by glu10. When a peptide bound to the hydroxyapatite was ligated to biotin about 70% of the streptavidin was recruited to the hydroxyapatite and 25-30% remained in the supernatant. In the control experiment, no more than 5% of the streptavidin was bound to the hydroxyapatite.

Substance | adsorption onto hydroxyapatite [1] | dihydrofolate reductase found in the pyrophosphate eluate (dihydrofolate reductase) | streptavidin recruited (bound) to the hydroxyapatite (streptavidin) | effect on mineralization of hydroxyapatite ([1]; in the presence of calcium and phosphate)
Aspartic acid hexamer [Asp6] | significantly adsorb | – | – | –
Glutamic acid decapeptide [glu10] | – | only a small amount | no more than 5% | –
glutamic acid hexamer [Glu6] | significantly adsorb | – | – | affect the mineralization

From patent US6455495B1, “Methods and compositions for delivery of therapeutic agents to bone tissue employing conjugates of negatively charged peptide oligomers with therapeutic agents” (The Salk Institute for Biological Studies, priority 1997, dated 2002)
